Experimental data published in patent US9539336B2, “Sialic acid derivatives” (priority 2012, dated 2017).

Columns and labels:
CD22 (Siglec-2) [1] = target: T1, CD22 (Siglec-2) (Homo sapiens, UniProt P20273); settings: Table II; affinity to CD22, BPC NeuAc = 1; cited from earlier work
T1 sequence (P20273 20-847): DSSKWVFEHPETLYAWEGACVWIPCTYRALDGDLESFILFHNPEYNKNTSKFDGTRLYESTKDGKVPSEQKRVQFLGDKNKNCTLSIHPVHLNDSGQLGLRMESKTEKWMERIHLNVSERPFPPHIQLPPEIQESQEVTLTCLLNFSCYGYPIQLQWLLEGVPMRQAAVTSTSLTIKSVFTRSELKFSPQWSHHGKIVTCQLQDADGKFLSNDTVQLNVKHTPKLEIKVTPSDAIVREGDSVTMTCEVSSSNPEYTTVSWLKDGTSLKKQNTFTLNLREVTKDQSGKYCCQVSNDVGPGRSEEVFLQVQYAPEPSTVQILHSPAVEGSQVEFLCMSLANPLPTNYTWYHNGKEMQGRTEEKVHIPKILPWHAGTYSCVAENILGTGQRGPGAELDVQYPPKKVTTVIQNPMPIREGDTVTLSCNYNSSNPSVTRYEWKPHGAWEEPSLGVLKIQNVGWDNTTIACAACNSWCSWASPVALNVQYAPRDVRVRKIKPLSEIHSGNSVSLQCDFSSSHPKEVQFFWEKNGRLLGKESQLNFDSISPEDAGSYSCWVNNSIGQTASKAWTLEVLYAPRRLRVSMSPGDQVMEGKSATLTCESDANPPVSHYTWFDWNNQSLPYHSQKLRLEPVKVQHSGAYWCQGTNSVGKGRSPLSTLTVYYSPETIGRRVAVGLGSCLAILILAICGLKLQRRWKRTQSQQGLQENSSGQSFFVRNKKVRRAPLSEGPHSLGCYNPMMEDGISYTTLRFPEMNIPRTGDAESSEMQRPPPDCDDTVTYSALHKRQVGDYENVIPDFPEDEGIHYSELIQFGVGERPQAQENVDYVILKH

CD22 (Siglec-2) [2] = target: T1, CD22 (Siglec-2); test: New assay: displacement of biotin conjugate 35 from sialidase-treated Daudi cells, measured by FACS; assay type: binding; design: endogenous in cells; host or cells: Daudi (human B cell lymphoma line); settings: Table II, IC50 values converted into rIP, BPC NeuAc = 1, 2 μmolar substance 35
Description: In order to be able to determine the affinity of the novel derivatives to CD22, a new assay was developed. For this assay, compound 35 (conjugate of a sialic acid derivative of the formula (I) and biotin) was prepared.
To determine the affinity of the compound of the formula (I), approximately 2×10^8 cells of the human B cell lymphoma line “Daudi” were incubated with sialidase (A. ureafaciens) for 1 h at 37° C. Subsequently, the enzyme was blocked with 1.5 mM 2,3-dehydroNeu5Ac and the cells were washed twice with PBS. Batches of 1-2×10^6 cells were transferred to sample vials and incubated on ice for 15 min with serial concentrations (10-fold dilutions) of the substance to be measured (inhibitor) and then for 20 min with 2 μmolar substance 35. The reaction volume was 50 μl. After washing with PBS, the sample was incubated for 15 min with Streptavidin-PE in the dark, then washed and the amount of substance 35 bound via Streptavadin-PE was measured by FACS. For the determination of 0% displacement of substance 35, cells without inhibitor were measured. For the determination of 100% displacement, cells were measured without substance 35 and without inhibitor. 4 substances and one reference substance were measured per assay. The IC50 values determined in each assay were subsequently converted into rIP values. For this purpose, substance 46 served as reference. […]

Row | SMILES | rIP (Literature assay) (CD22 (Siglec-2) [1]) | rIP (New assay) (CD22 (Siglec-2) [2])
1 | COC(=O)CCCCCO[C@@H]1O[C@H](CO)[C@@H](O[C@@H]2O[C@H](CO[C@]3(C(=O)[O-])C[C@H](O)[C@@H](NC(C)=O)[C@H]([C@H](O)[C@H](O)CNC(=O)c4ccc(-c5ccccc5)cc4)O3)[C@H](O)[C@H](O)[C@H]2O)[C@H](O)[C@H]1NC(C)=O.[Na+] [BPC NeuAc- LN] | 15.9 | –
2 | CO[C@]1(C(=O)[O-])C[C@H](O)[C@@H](NC(C)=O)[C@H]([C@H](O)[C@H](O)CNC(=O)c2ccc(-c3ccccc3)cc2)O1.[Na+] [BPC NeuAc] | 1 | 1
